# What was measured:
# [1] = molecular target: T1, STAT5b (Signal transducer and activator of transcription 5b) (Homo sapiens, UniProt P51692); experiment: covalent photolabelling by tryptic digestion and LC-MS/MS; STAT5b inhibition assay with irradiation (no inhibition under […] without irradiation); format: binding
# T1 sequence (P51692 1-787): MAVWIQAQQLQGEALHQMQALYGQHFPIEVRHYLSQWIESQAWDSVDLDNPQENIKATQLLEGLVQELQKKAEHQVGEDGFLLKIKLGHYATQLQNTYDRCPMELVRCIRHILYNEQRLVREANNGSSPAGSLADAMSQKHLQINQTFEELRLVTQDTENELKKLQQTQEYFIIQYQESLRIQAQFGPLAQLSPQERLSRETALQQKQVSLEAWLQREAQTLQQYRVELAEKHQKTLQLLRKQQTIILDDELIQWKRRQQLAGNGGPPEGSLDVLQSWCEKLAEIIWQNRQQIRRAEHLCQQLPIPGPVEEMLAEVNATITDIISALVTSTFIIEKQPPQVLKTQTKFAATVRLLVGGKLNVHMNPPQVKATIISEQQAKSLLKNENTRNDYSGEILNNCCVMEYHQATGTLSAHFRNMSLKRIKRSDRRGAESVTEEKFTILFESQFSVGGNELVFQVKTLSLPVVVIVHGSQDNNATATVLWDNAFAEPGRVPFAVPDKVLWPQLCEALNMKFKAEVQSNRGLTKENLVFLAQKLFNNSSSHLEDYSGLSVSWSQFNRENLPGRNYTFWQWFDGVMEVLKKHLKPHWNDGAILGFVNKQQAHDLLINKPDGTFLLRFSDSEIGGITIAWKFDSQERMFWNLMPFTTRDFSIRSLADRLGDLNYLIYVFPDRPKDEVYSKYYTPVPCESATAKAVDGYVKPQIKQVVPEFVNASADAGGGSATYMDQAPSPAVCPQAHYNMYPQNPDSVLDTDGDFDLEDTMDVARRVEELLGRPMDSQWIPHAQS
# [2] = molecular target: acetylcholine esterase (AChE) (Electrophorus electricus, UniProt O42275); experiment: biochemical enzyme inhibition assay after photoactivation at […] nm (no inhibition without irradiation); covalent labelling by enzymatic digestion and MS
# Sequence of acetylcholine esterase (AChE) (O42275 24-633): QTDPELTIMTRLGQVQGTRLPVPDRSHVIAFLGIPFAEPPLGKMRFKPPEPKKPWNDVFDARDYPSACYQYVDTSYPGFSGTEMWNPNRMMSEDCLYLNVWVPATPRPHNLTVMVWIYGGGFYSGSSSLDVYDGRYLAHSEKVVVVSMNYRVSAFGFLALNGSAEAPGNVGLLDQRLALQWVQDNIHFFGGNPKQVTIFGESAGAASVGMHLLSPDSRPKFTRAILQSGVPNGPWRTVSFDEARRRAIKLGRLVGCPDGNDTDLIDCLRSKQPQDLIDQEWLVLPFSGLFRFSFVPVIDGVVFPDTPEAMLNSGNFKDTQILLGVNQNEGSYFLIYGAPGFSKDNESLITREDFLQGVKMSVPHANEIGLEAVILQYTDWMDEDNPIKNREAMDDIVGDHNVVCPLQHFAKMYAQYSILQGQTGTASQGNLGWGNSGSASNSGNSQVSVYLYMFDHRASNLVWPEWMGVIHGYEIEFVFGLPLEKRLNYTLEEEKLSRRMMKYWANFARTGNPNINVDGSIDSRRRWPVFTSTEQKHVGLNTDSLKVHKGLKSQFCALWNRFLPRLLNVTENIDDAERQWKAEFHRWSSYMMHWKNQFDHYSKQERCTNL
IC50 [1] [µM],SMILES,IC50 [2] [µM]
24.1,"O=c1c(/C=N/NS(=O)(=O)c2cccnc2)coc2ccccc12 [compound 10, 10]",
,"COc1cc2c(cc1OC)C(=NNS(=O)(=O)c1ccc(C)cc1)C(CC1CCN(Cc3ccccc3)CC1)C2 (centres unmarked) [compound 12, donepezil-tosylhydrazone]",0.379
